From the NIST ThermoML archive (doi:10.1016/j.jct.2019.07.011)

Assay: xn = mol fraction of the nth substance listed
Settings: Gas, Frequency=0.002 MHz, Spherical resonator

[He] [helium] + C
Settings | speed of sound [m/s]
325 K, 5510.1 kPa, x2 = 0.95 | 474.34
325 K, 6484.7 kPa, x2 = 0.8999 | 489.68
325 K, 6498.1 kPa, x2 = 0.95 | 475.29
325 K, 7001.3 kPa, x2 = 0.95 | 475.96
325 K, 7483.3 kPa, x2 = 0.8999 | 491.54
325 K, 7498.5 kPa, x2 = 0.95 | 476.75
325 K, 8497.4 kPa, x2 = 0.8999 | 493.86
325 K, 8512.5 kPa, x2 = 0.95 | 478.75
325 K, 9494.2 kPa, x2 = 0.8999 | 496.64
325 K, 9503.9 kPa, x2 = 0.95 | 481.25
325 K, 10493 kPa, x2 = 0.8999 | 499.87
325 K, 10502 kPa, x2 = 0.95 | 484.31
325 K, 11469 kPa, x2 = 0.95 | 487.82
325 K, 11475 kPa, x2 = 0.8999 | 503.57
325 K, 12500 kPa, x2 = 0.8999 | 507.85
325 K, 12517 kPa, x2 = 0.95 | 492.25
325 K, 13295 kPa, x2 = 0.95 | 495.91
325 K, 13503 kPa, x2 = 0.8999 | 512.52
325 K, 14011 kPa, x2 = 0.95 | 499.58
325 K, 14493 kPa, x2 = 0.8999 | 517.56
325 K, 14716 kPa, x2 = 0.95 | 503.46
325 K, 15294 kPa, x2 = 0.8999 | 521.98
325 K, 15309 kPa, x2 = 0.95 | 506.94
325 K, 15995 kPa, x2 = 0.8999 | 526.06
325 K, 16003 kPa, x2 = 0.95 | 511.23
325 K, 16485 kPa, x2 = 0.8999 | 529.05
325 K, 16552 kPa, x2 = 0.95 | 514.81
325 K, 16992 kPa, x2 = 0.8999 | 532.23
325 K, 17002 kPa, x2 = 0.95 | 517.85
325 K, 17513 kPa, x2 = 0.95 | 521.43
325 K, 17520 kPa, x2 = 0.8999 | 535.66
325 K, 17961 kPa, x2 = 0.95 | 524.66
325 K, 17995 kPa, x2 = 0.8999 | 538.81
325 K, 18490 kPa, x2 = 0.8999 | 542.22
325 K, 18521 kPa, x2 = 0.95 | 528.85
325 K, 18993 kPa, x2 = 0.8999 | 545.76
325 K, 19024 kPa, x2 = 0.95 | 532.71
325 K, 19504 kPa, x2 = 0.8999 | 549.41
325 K, 19536 kPa, x2 = 0.95 | 536.75
325 K, 19906 kPa, x2 = 0.8999 | 552.38
350 K, 476.77 kPa, x2 = 0.95 | 491.9
350 K, 489.4 kPa, x2 = 0.8999 | 503.05
350 K, 985.81 kPa, x2 = 0.95 | 491.68
350 K, 990 kPa, x2 = 0.8999 | 503.09
350 K, 1981.5 kPa, x2 = 0.8999 | 503.39
350 K, 1988.5 kPa, x2 = 0.95 | 491.41
350 K, 3476.8 kPa, x2 = 0.8999 | 504.31
350 K, 3557.7 kPa, x2 = 0.95 | 491.72
350 K, 4993.3 kPa, x2 = 0.8999 | 506.12
350 K, 5005.4 kPa, x2 = 0.95 | 492.68
350 K, 6484 kPa, x2 = 0.8999 | 508.51
350 K, 6520.9 kPa, x2 = 0.95 | 494.52
350 K, 7487.6 kPa, x2 = 0.8999 | 510.6
350 K, 8493.7 kPa, x2 = 0.8999 | 513.01
350 K, 8537.3 kPa, x2 = 0.95 | 498.36
350 K, 9502.1 kPa, x2 = 0.8999 | 515.83
350 K, 10503 kPa, x2 = 0.8999 | 518.95
350 K, 10534 kPa, x2 = 0.95 | 503.83
350 K, 11996 kPa, x2 = 0.8999 | 524.33
350 K, 12032 kPa, x2 = 0.95 | 509.02
350 K, 13418 kPa, x2 = 0.95 | 514.87
350 K, 13498 kPa, x2 = 0.8999 | 530.47
350 K, 14498 kPa, x2 = 0.8999 | 535.04
350 K, 14519 kPa, x2 = 0.95 | 519.93
350 K, 15505 kPa, x2 = 0.8999 | 539.96
350 K, 15599 kPa, x2 = 0.95 | 525.36
350 K, 16500 kPa, x2 = 0.8999 | 545.16
350 K, 16626 kPa, x2 = 0.95 | 530.93
350 K, 17495 kPa, x2 = 0.8999 | 550.65
350 K, 17512 kPa, x2 = 0.95 | 536.05
350 K, 18437 kPa, x2 = 0.95 | 541.71
350 K, 18509 kPa, x2 = 0.8999 | 556.57
350 K, 19237 kPa, x2 = 0.95 | 546.81
350 K, 19509 kPa, x2 = 0.8999 | 562.67
350 K, 20020 kPa, x2 = 0.95 | 552
350 K, 20352 kPa, x2 = 0.8999 | 568.05
350 K, 20966 kPa, x2 = 0.95 | 558.46
375 K, 480.89 kPa, x2 = 0.8999 | 517.61
375 K, 508.08 kPa, x2 = 0.95 | 506.89
375 K, 970.3 kPa, x2 = 0.95 | 506.94
375 K, 974.52 kPa, x2 = 0.8999 | 518
375 K, 1977.8 kPa, x2 = 0.8999 | 518.72
375 K, 1994.9 kPa, x2 = 0.95 | 507.23
375 K, 2982.4 kPa, x2 = 0.8999 | 519.78
375 K, 3486.1 kPa, x2 = 0.95 | 508.11
375 K, 4474.8 kPa, x2 = 0.8999 | 521.69
375 K, 4994.3 kPa, x2 = 0.95 | 509.68
375 K, 5993.9 kPa, x2 = 0.8999 | 524.5
375 K, 6507.4 kPa, x2 = 0.95 | 511.94
375 K, 7482.9 kPa, x2 = 0.8999 | 527.66
375 K, 8485.9 kPa, x2 = 0.8999 | 530.3
375 K, 8534.5 kPa, x2 = 0.95 | 516.24
375 K, 9494.9 kPa, x2 = 0.8999 | 533.16
375 K, 10491 kPa, x2 = 0.8999 | 536.22
375 K, 10526 kPa, x2 = 0.95 | 521.64
375 K, 11482 kPa, x2 = 0.8999 | 539.61
375 K, 12041 kPa, x2 = 0.95 | 526.64
375 K, 12500 kPa, x2 = 0.8999 | 543.46
375 K, 13432 kPa, x2 = 0.95 | 531.87
375 K, 13465 kPa, x2 = 0.8999 | 547.3
375 K, 14475 kPa, x2 = 0.8999 | 551.75
375 K, 14510 kPa, x2 = 0.95 | 536.35
375 K, 15493 kPa, x2 = 0.8999 | 556.41
375 K, 15609 kPa, x2 = 0.95 | 541.3
375 K, 16440 kPa, x2 = 0.8999 | 560.93
375 K, 16573 kPa, x2 = 0.95 | 545.93
375 K, 17490 kPa, x2 = 0.8999 | 566.34
375 K, 17518 kPa, x2 = 0.95 | 550.72
375 K, 18172 kPa, x2 = 0.8999 | 569.92
375 K, 18322 kPa, x2 = 0.95 | 555.02
375 K, 18705 kPa, x2 = 0.8999 | 572.84
375 K, 19198 kPa, x2 = 0.95 | 559.9
